Assay results reported in the supplement of paper PMC11451515.

Tested on: P12-Ichikawa
Assay: cell viability relative to DMSO control; higher = less cytotoxic
Conditions: 48 h
Method in brief: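 In 1536-well plates, 5 μl of leukemia cells were seeded per well: 500 cells/well for NOMO1 or SEM and 1000 cells/well for P12-Ichikawa. Each line had first been adapted for at least four passages in each medium. Library compounds in DMSO were pin-dosed at 11 threefold concentrations between 47 μM and 0.79 nM, and CellTiter-Glo One luminescence was read after 48 h at 37°C. Viability is a per-plate percentage relative to DMSO wells, with cell-free wells as background.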

[1] = HPLM + 10% dialyzed FBS, 0.000781 µM
[2] = HPLM + 10% dialyzed FBS, 0.00234 µM
[3] = HPLM + 10% dialyzed FBS, 0.00702 µM
[4] = HPLM + 10% dialyzed FBS, 0.0211 µM
[5] = HPLM + 10% dialyzed FBS, 0.0632 µM
[6] = HPLM + 10% dialyzed FBS, 0.19 µM
[7] = HPLM + 10% dialyzed FBS, 0.569 µM
[8] = HPLM + 10% dialyzed FBS, 1.71 µM
[9] = HPLM + 10% dialyzed FBS, 5.12 µM
[10] = HPLM + 10% dialyzed FBS, 15.4 µM
[11] = HPLM + 10% dialyzed FBS, 46.1 µM
[12] = RPMI 5 mM glucose + 10% FBS, 0.000781 µM
[13] = RPMI 5 mM glucose + 10% FBS, 0.00234 µM
[14] = RPMI 5 mM glucose + 10% FBS, 0.00702 µM
[15] = RPMI 5 mM glucose + 10% FBS, 0.0211 µM
[16] = RPMI 5 mM glucose + 10% FBS, 0.0632 µM
[17] = RPMI 5 mM glucose + 10% FBS, 0.19 µM
[18] = RPMI 5 mM glucose + 10% FBS, 0.569 µM
[19] = RPMI 5 mM glucose + 10% FBS, 1.71 µM
[20] = RPMI 5 mM glucose + 10% FBS, 5.12 µM
[21] = RPMI 5 mM glucose + 10% FBS, 15.4 µM
[22] = RPMI 5 mM glucose + 10% FBS, 46.1 µM
[23] = RPMI 5 mM glucose + 10% dialyzed FBS, 0.000781 µM
[24] = RPMI 5 mM glucose + 10% dialyzed FBS, 0.00234 µM
[25] = RPMI 5 mM glucose + 10% dialyzed FBS, 0.00702 µM
[26] = RPMI 5 mM glucose + 10% dialyzed FBS, 0.0211 µM
[27] = RPMI 5 mM glucose + 10% dialyzed FBS, 0.0632 µM
[28] = RPMI 5 mM glucose + 10% dialyzed FBS, 0.19 µM
[29] = RPMI 5 mM glucose + 10% dialyzed FBS, 0.569 µM
[30] = RPMI 5 mM glucose + 10% dialyzed FBS, 1.71 µM
[31] = RPMI 5 mM glucose + 10% dialyzed FBS, 5.12 µM
[32] = RPMI 5 mM glucose + 10% dialyzed FBS, 15.4 µM
[33] = RPMI 5 mM glucose + 10% dialyzed FBS, 46.1 µM

| Compound | cell viability [1] [%] | cell viability [2] [%] | cell viability [3] [%] | cell viability [4] [%] | cell viability [5] [%] | cell viability [6] [%] | cell viability [7] [%] | cell viability [8] [%] | cell viability [9] [%] | cell viability [10] [%] | cell viability [11] [%] | cell viability [12] [%] | cell viability [13] [%] | cell viability [14] [%] | cell viability [15] [%] | cell viability [16] [%] | cell viability [17] [%] | cell viability [18] [%] | cell viability [19] [%] | cell viability [20] [%] | cell viability [21] [%] | cell viability [22] [%] | cell viability [23] [%] | cell viability [24] [%] | cell viability [25] [%] | cell viability [26] [%] | cell viability [27] [%] | cell viability [28] [%] | cell viability [29] [%] | cell viability [30] [%] | cell viability [31] [%] | cell viability [32] [%] | cell viability [33] [%] |
| --- | --- | --- | --- | --- | --- | --- | --- | --- | --- | --- | --- | --- | --- | --- | --- | --- | --- | --- | --- | --- | --- | --- | --- | --- | --- | --- | --- | --- | --- | --- | --- | --- | --- |
| C[S+](=O)([O-])c1cccc(CNc2nc(Nc3ccc4c(c3)CCC(=O)N4)ncc2C(F)(F)F)c1 | 114 | 122 | 112 | 111 | 110 | 107 | 106 | 102 | 106 | 96.7 | 14.3 | 119 | 120 | 113 | 120 | 108 | 111 | 113 | 103 | 101 | 89.9 | 25.9 | 110 | 120 | 120 | 113 | 111 | 110 | 106 | 114 | 104 | 94.3 | 32.3 |
| Cc1cc(Nc2nc(N[C@@H](C)c3ccc(F)cc3)c(C#N)cc2F)n[nH]1 | 105 | 101 | 96.7 | 105 | 102 | 102 | 101 | 94.2 | 22.1 | 27.6 | 56.8 | 104 | 103 | 106 | 105 | 98.9 | 100 | 107 | 93 | 23 | 44.7 | 53.1 | 96.7 | 89.5 | 104 | 97.4 | 95.6 | 104 | 87.5 | 84.4 | 34.2 | 45.4 | 54.8 |
| C=CCc1cccc(/C=N/NC(=O)CN2CCN(Cc3ccccc3)CC2)c1O | 120 | 115 | 119 | 118 | 116 | 117 | 117 | 106 | 97 | 64.2 | 7.9 | 110 | 102 | 113 |  | 110 | 113 | 108 | 108 | 94.5 | 52.9 | 17.1 | 109 | 99.7 | 109 | 114 | 109 | 101 | 112 | 102 | 87.5 | 44.8 | 13.5 |
| Nc1cccc2c1CN([C@H]1CCC(=O)NC1=O)C2=O | 115 | 112 | 114 | 117 | 109 | 114 | 107 | 103 | 107 | 88.8 | 96.7 | 109 | 124 | 118 | 118 | 124 | 113 | 116 | 99.6 | 114 | 80.8 | 92.7 | 112 | 114 | 105 | 107 | 107 | 107 | 97.4 | 102 | 94.8 | 63.3 | 80.8 |
| CC1(N2CCC(n3c([C@@H]4CCCNC4)nc4ccccc43)CC2)CCCCCCC1 | 101 | 95.4 | 106 | 111 | 113 | 115 | 113 | 115 | 108 | 88 | 55.6 | 98.3 | 95 | 104 | 115 | 110 | 111 | 124 | 118 | 110 | 86.9 | 67.9 | 97.1 | 101 | 104 | 115 | 112 | 107 | 110 | 109 | 109 | 81.7 | 65.9 |
| CNCc1ccc(-c2[nH]c3cc(F)cc4c3c2CCNC4=O)cc1 | 109 | 124 | 121 | 121 | 124 | 126 | 130 | 119 | 122 | 123 | 119 |  |  |  |  |  |  |  |  |  |  |  |  |  |  |  |  |  |  |  |  |  |  |
| CC[C@H](C)C(=O)O[C@H]1C[C@H](O)\C=C2\C=C/[C@H](C)[C@H](CC[C@@H](O)C[C@@H](O)CC(O)=O)[C@@H]12 | 112 | 116 | 105 | 112 | 111 | 109 | 107 | 97.1 | 98.2 | 96.1 | 86.7 | 107 | 106 | 107 | 113 | 116 | 110 | 106 | 104 | 98.1 | 98.9 | 96.5 | 114 | 102 | 109 | 109 | 111 | 117 | 106 | 106 | 105 | 101 | 92.1 |
